Data from patent US20260294885A1, “TREATMENT OF INFLAMMATORY CONDITIONS COMPRISING IMU-856” (IMMUNIC AG, priority 2023, published 2026).
“Also recorded” adds a separate entry of the source. Where two headings read alike, the source gives them in different places.

Experiments:
[1] = system: colorectal adenocarcinoma-2 (Caco-2) cells; test: TEER recovery across a Caco-2 monolayer following inflammation with TNF-α or IL-6; assay type: cell-based, human
Source text: In one TEER model, tight junction (TJ)-related proteins were investigated, and a normalisation of TJ proteins (claudin (Cldn)-1 and claudin-2) was observed.
CaCo2 cell line is derived from human epithelial cells from the colon. They are frequently used to mimic intestinal barrier function to either look at permeability of drugs or to look at is functional resistance. For the present experiment, the CaCo2 cells were used to mimic the […] LEFT OUT] and investigate the effect of IMU-856 on this by measuring the electrical transepithelial resistance (TEER). […] For this CaCo2 cells, cultivated in a 6-well trans well plate on top of the membrane that has small pores that prevent the cells from going through but allow molecules and nutrients to pass. […] Then, cells were washed and fresh medium with vehicle or IMU-856 was given. TEER was measured before and after challenge at different time points. For correct measurement, the shorter electrode is inserted into the transwell chamber (without touching the cells), and the longer electrode is inserted in the outer well.

[2] = system: dextran sodium sulphate (DSS)-induced colitis; test: DSS-induced colitis model in mice (different settings); assay type: in vivo; settings: different settings of DSS colitis model
[3] = Pharmacokinetics in celiac disease patients, Part C; assay type: in vivo, human; settings: for Cmax at 192 h / Tmax at 192 h / AUC(0-t) at 192 h: human, in vivo, Day 8, mean; for AUC(0-t) at 192 h: read-out: AUC0-t last
Protocol: FIG. 1 illustrates the flow chart of part C in celiac disease (CelD) designed as proof-of-concept study with a gluten challenge trial. Part C was planned to include a well-controlled celiac disease patient population: The patients were 100% seronegative, indicating absence of ongoing substantial gluten exposure and was performed at sites in Australia and New Zealand. Part C was designed to assess safety, tolerability and pharmacokinetics of IMU-856 and measured also histologic changes, blood biomarkers, nutrient uptake and disease-related symptoms.

[4] = system: plasma citrulline; test: Plasma citrulline, Part C; assay type: in vivo, human
Protocol: In Part A, healthy subjects were randomised to single ascending doses of IMU-856 (10 mg to 160 mg) or placebo. In Part B healthy subjects were randomised to multiple once-daily doses of IMU-856 (40, 80, and 160 mg) or placebo for 14 days. Part C randomised patients with celiac disease who were on a gluten-free diet to multiple once-daily doses of IMU-856 (80 mg and 160 mg) or placebo for 28 days; a once-daily gluten challenge (6 g) was introduced on Day 14 and ended on Day 28. 71 healthy subjects were enrolled in Part A and B (N=19 placebo and N=52 IMU-856) and 43 patients with CelD in Part C (N=14 placebo; N=14 for 80 mg, and N=15 for 160 mg). In Parts A and B, treatment-emergent adverse events (TEAEs) occurred in 24 (73%) and 15 (79%) of subjects receiving any dose of IMU-856 compared to 6 (50%) and 5 (71%) with placebo, respectively. […] In Part C, the most common adverse events with any dose of IMU-856 by preferred term were headache (13 [45%]), nausea (9 [31%]), diarrhoea (8 [28%]), and abdominal distension (7 [24%]). […] In Part C, the mean change in villous height from baseline to Day 29 with 80 mg and 160 mg was −20.9±34.8 μm, and −22.5±51.1 μm, respectively, and −60.3±52.2 μm with placebo. […] Mean change in plasma citrulline increased with 80 mg and 160 mg from baseline to Day 14 (2.4±6.2 and 6.1±5.9 μmol/L, respectively) and from baseline to Day 29 (2.8±7.6 and 2.2±5.3 μmol/L, respectively), but not with placebo (−2.7±5.6 and −4.0±6.5 μmol/L). […] Mean increase in zinc levels from baseline to Day 29 with 80 mg and 160 mg were 0.3±1.4 and 0.9±2.1 μmol/L compared to a mean decrease in placebo (−0.9±2.1 μmol/L). Gluten-induced symptoms were also attenuated by IMU-856.
Also, biomarker response upon treatment of CelD with IMU-856 was assessed. […] A wide inter-individual range of IL-2 response leads to large SD, especially in the placebo group. […]

Cn1c(COc2cc(C(F)(F)F)ccn2)nnc1[C@H]1CC[C@H](c2cnn([C@H]3CC[C@H](N4CC5(CCO5)C4)CC3)c2)CC1 [IMU-856, 6-(trans-4-(4-(trans-4-(4-methyl-5-(((4-(trifluoromethyl)pyridin-2-yl)oxy)methyl)-4H-1,2,4-triazol-3-yl)cyclohexyl)-1H-pyrazol-1-yl)cyclohexyl)-1-oxa-6-azaspiro[3.3]heptane]
recovery of TEER ([1]; following inflammation with IL-6): significantly accelerates the recovery
recovery of TEER ([1]; following inflammation with TNF-α): significantly accelerates the recovery
colon length [2]: increasing colon length
colon mucosal histology [2]: improving colon mucosal histology
diarrhea symptoms [2]: improving diarrhea symptoms
disease severity [2]: reducing disease severity
achievement of steady state ([3]; Part C): fast achievement of steady state
dose linearity of plasma Cmax and AUC ([3]; Part C): linear pharmacokinetics with dose-proportional increase
mean trough levels / exposure over dosing period ([3]; Part C): constant exposure within the whole dosing period
Cmax at 192 h ([3]; IMU-856 80 mg): 354 ng/mL
Tmax at 192 h ([3]; IMU-856 80 mg): 1.9 h
AUC(0-t) at 192 h ([3]; IMU-856 80 mg): 1570 ng·h/mL
Cmax at 192 h ([3]; IMU-856 160 mg): 766 ng/mL
Tmax at 192 h ([3]; IMU-856 160 mg): 1.5 h
AUC(0-t) at 192 h ([3]; IMU-856 160 mg): 3610 ng·h/mL
mean change in plasma citrulline ([4]; 80 mg, baseline to Day 14): 2.4 ± 6.2 µmol/L
mean change in plasma citrulline ([4]; 160 mg, baseline to Day 29): 2.2 ± 5.3 µmol/L
citrulline levels ([4]; in words): increased citrulline levels dose proportionally; also recorded: increased in both active treatment arms
